Measurements as given in patent US8710068B2, “Method of treating cancer using a survivin inhibitor” (The Trustees Of The University Of Pennsylvania, priority 2009, dated 2014).

Tests used:
HeLa cells = assay: BrdU incorporation DNA synthesis assay (FACS), HeLa; type: cell-based, human; settings: 4 hours treatment then one-hour BrdU
Description: BrdU-labeled cells were analyzed by FACS. The percentage of BrdU-positive cells is indicated.
HeLa cells were treated with S12, aphidicolin, or DMSO (control) for 4 hours. BrdU was then added to the medium followed by an additional incubation of 1 hour. The amount of BrdU was examined by staining with anti-BrdU antibody and FACS analysis. The percentage of BrdU-positive cells is shown.
To establish the specificity of the biological activities of the Survivin targeting we examined whether the compounds affect DNA synthesis. HeLa cells were treated with Aphidicolin, S2 or DMSO for 4 hours, followed by one-hour incubation with BrdU. The cells were then collected, fixed and stained with FITC-labeled anti-BrdU antibody.

Sur-V89Y = target: T1, Sur-V89Y (Homo sapiens, UniProt O15392, V89Y); assay: ITC binding to Survivin mutant V89Y; settings: in words
T1 construct: made in house; host or cells: bacteria
Description: FIG. 5 illustrates an analysis of S12-Survivin binding with isothermal titration calorimetry (ITC). Single-site point mutagenesis was performed to create the Survivin mutants F86A and V89Y. The native and the mutant proteins were produced and purified from bacteria.
In order to examine the specificity of the binding, we generated point mutations on the Survivin protein at the site presumably targeted by S12. The two mutations were substitutions of phenylalanine 86 with alanine (F86A) and valine 89 with tyrosine (V89Y). These two altered sites are also adjacent to the interface involved in dimerization of the Survivin protein. Based on structural analyses, we predict that alterations of either of these two amino acid residues may abolish the binding of S12 without affecting the overall structure of the Survivin protein.

T1 sequence (O15392 whole entry V89Y): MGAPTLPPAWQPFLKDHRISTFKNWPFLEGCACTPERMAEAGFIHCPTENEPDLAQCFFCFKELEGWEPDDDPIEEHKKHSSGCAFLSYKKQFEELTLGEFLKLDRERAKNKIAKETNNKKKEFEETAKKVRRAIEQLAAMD

With `O=C(CC1(O)C(=O)Nc2ccc(Br)cc21)c1ccc2c(c1)OCO2` (centres unmarked) [S12] the “DNA synthesis (BrdU incorporation)” value (HeLa cells) was “did not block DNA synthesis” and the “binding to mutant Sur-V89Y” value (Sur-V89Y) was “did not bind”.
